For the assay, the system named is Pneumocystis carinii. Put plainly: Treatment of Pneumocystis carinii pneumonia in Sprague-Dawley rats (extent of disease by histologic score). It counts as in vivo, male Sprague-Dawley rats. The following applies: for Extent of Disease by Histologic Score: number of animals with score 0.5 / Extent of Disease by Histologic Score: number of animals with score 1 / Extent of Disease by Histologic Score: number of animals with score 2 / Extent of Disease by Histologic Score: number of animals with score 3 / Extent of Disease by Histologic Score: number of animals with score 4: 10 mg/kg i.v. daily, 14 days; for Extent of Disease by Histologic Score: number of animals with score 0.5 / Extent of disease by histologic score (combined): number of animals in scoring group 0.5: 0.5 = <10 cysts found per 2 sections; for Extent of Disease by Histologic Score: number of animals with score 1 / Extent of disease by histologic score (combined): number of animals in scoring group 1: 1 = scattered cysts, <5% of lung involved; for Extent of Disease by Histologic Score: number of animals with score 2 / Extent of disease by histologic score (combined): number of animals in scoring group 2: 2 = scattered cysts; for Extent of Disease by Histologic Score: number of animals with score 2: 5-10% lung involved or small foci of infection; for Extent of Disease by Histologic Score: number of animals with score 3 / Extent of disease by histologic score (combined): number of animals in scoring group 3: 3 = scattered cysts; for Extent of Disease by Histologic Score: number of animals with score 3: 10-50% of lung involved with some intense areas of infection; for Extent of Disease by Histologic Score: number of animals with score 4: 4 = >50% of lung involved with many intense areas of focal infection; for Efficacy in treating PCP compared with pentamidine / Efficacy in treating PCP compared with control: 10 mg/kg unless otherwise noted; for Extent of disease by histologic score (combined): number of animals in scoring group 0.5 / Extent of disease by histologic score (combined): number of animals in scoring group 1 / Extent of disease by histologic score (combined): number of animals in scoring group 2 / Extent of disease by histologic score (combined): number of animals in scoring group 3 / Extent of disease by histologic score (combined): number of animals in scoring group 4: Table XII composite, 10 mg/kg; for Extent of disease by histologic score (combined): number of animals in scoring group 2: 5-10% of lung involved; for Extent of disease by histologic score (combined): number of animals in scoring group 3: 10-50% of lung involved; for Extent of disease by histologic score (combined): number of animals in scoring group 4: 4 = >50% of lung involved. On the procedure:
Induction and Treatment Of Pneumocystis Carinii in Sprague-Dawley Rats
Male Sprague-Dawley rats, barrier raised, non-certified virus free, weighing 150-200g were obtained from Hilltop Laboratories and housed individually. Animals were begun on a low (8%) protein diet (ICN Biomedicals, Cincinnati, OH) and drinking water containing tetracycline (0.5 mg/ml) and dexamethasone (1.0 μg/ml) immediately upon arrival. This treatment was given for the next 8 weeks, monitoring fluid intake daily and weighing animals weekly. Dilutions of the drinking solution were made when animals consumed too much fluid so as to prevent cortisone poisoning. At the beginning of the sixth week, animals were divided into groups of 8 animals each and the test compounds were administered daily by i.v. injection at a dose of 10 mg/kg, unless otherwise noted, for the next 14 days.
Animals were sacrificed at the end of the eighth week by chloroform inhalation and the left lung was removed aseptically and placed in sterile Hank's balanced salts solution without calcium or magnesium (HBSS-) for the ground tissue procedure. The right lung was inflated in situ with 10% […] and removed for histologic examination GMS staining. […]

The structures appear in SMILES notation. Entries after “also recorded” stand apart in the source; their conditions may differ.

For `N=C(N)c1ccc(OCCCCCCOc2ccc(C(=N)N)cc2)cc1` [Example 20, hexamidine, reference compound], the “Extent of Disease by Histologic Score: number of animals with score 0.5” value is 3 animals, the “Extent of Disease by Histologic Score: number of animals with score 1” value is recorded as 3 animals, the “Extent of Disease by Histologic Score: number of animals with score 2” value was determined as 1 animals and the “Extent of Disease by Histologic Score: number of animals with score 3” value is reported as 0 animals. In addition, the “Extent of Disease by Histologic Score: number of animals with score 4” value was found to be 0 animals, the “Efficacy in treating PCP compared with pentamidine” value is reported as “improved performance in treating pcp”, the “Extent of disease by histologic score (combined): number of animals in scoring group 0.5” value was determined as 3 animals and the “Extent of disease by histologic score (combined): number of animals in scoring group 1” value is listed as 3 animals. Besides, the “Extent of disease by histologic score (combined): number of animals in scoring group 2” value came to 1 animals, the “Extent of disease by histologic score (combined): number of animals in scoring group 3” value worked out at 0 animals and the “Extent of disease by histologic score (combined): number of animals in scoring group 4” value was found to be 0 animals.
As for `N=C(N)c1ccc(NCCCCCCNc2ccc(C(=N)N)cc2N)c(N)c1` [Example 23], the “Extent of Disease by Histologic Score: number of animals with score 0.5” value was determined as 3 animals, the “Extent of Disease by Histologic Score: number of animals with score 1” value amounted to 1 animals, the “Extent of Disease by Histologic Score: number of animals with score 2” value is given as 2 animals and the “Extent of Disease by Histologic Score: number of animals with score 3” value was determined as 0 animals. Also, the “Extent of Disease by Histologic Score: number of animals with score 4” value was 1 animals, the “Extent of disease by histologic score (combined): number of animals in scoring group 0.5” value was found to be 3 animals, the “Extent of disease by histologic score (combined): number of animals in scoring group 1” value was 1 animals and the “Extent of disease by histologic score (combined): number of animals in scoring group 2” value is recorded as 2 animals. For the same compound, the “Extent of disease by histologic score (combined): number of animals in scoring group 3” value is 0 animals and the “Extent of disease by histologic score (combined): number of animals in scoring group 4” value came out at 1 animals.
Regarding `c1cc(C2=NCCN2)ccc1OCCCCOc1ccc(C2=NCCN2)cc1` [Example 40], the “Extent of Disease by Histologic Score: number of animals with score 0.5” value is 1 animals, the “Extent of Disease by Histologic Score: number of animals with score 1” value is recorded as 2 animals, the “Extent of Disease by Histologic Score: number of animals with score 2” value is given as 3 animals and the “Extent of Disease by Histologic Score: number of animals with score 3” value is on record as 1 animals. The “Extent of Disease by Histologic Score: number of animals with score 4” value was 0 animals, the “Efficacy in treating PCP compared with control” value was “significantly better than the control”, the “Extent of disease by histologic score (combined): number of animals in scoring group 0.5” value came to 1 animals and the “Extent of disease by histologic score (combined): number of animals in scoring group 1” value turned out to be 2 animals. For the same compound, the “Extent of disease by histologic score (combined): number of animals in scoring group 2” value was determined as 3 animals, the “Extent of disease by histologic score (combined): number of animals in scoring group 3” value is on record as 1 animals and the “Extent of disease by histologic score (combined): number of animals in scoring group 4” value was found to be 0 animals.
As for `N=C(N)c1ccc(OCCCCCOc2ccc(C(=N)N)cc2N)c(N)c1` [Example 14], the “Extent of Disease by Histologic Score: number of animals with score 4” value was determined as 0 animals, the “Efficacy in treating PCP compared with control” value is on record as “significantly better than the control”, the “Efficacy in treating PCP compared with pentamidine” value is listed as “improved performance in treating pcp; also recorded: approximately comparable to pentamidine in efficacy” and the “Extent of disease by histologic score (combined): number of animals in scoring group 0.5” value is given as 8 animals. For the same compound, the “Extent of disease by histologic score (combined): number of animals in scoring group 1” value is listed as 5 animals, the “Extent of disease by histologic score (combined): number of animals in scoring group 2” value is recorded as 1 animals, the “Extent of disease by histologic score (combined): number of animals in scoring group 3” value stood at 1 animals and the “Extent of disease by histologic score (combined): number of animals in scoring group 4” value turned out to be 0 animals.

The record behind these values is US4933347A, “Diamidines and bis(imidazolines) for the treatment of and prophylaxis against pneumocystis carinii pneumonia” (University of North Carolina at Chapel Hill, priority 1988, dated 1990).
